Entries after “also recorded” stand apart in the source; their conditions may differ. Like-named read-outs stand apart in the source and are kept apart here.
What was measured:
[1] = system: patients with advanced solid tumours; assay: Phase 1 safety and tolerability: TEAEs (NCI CTCAE v4.0), DLTs, MTD/RP2D; format: in vivo
Protocol: Part B was a single-arm, 3 + 3 dose-escalation Phase 1 study evaluating the safety, tolerability and PK of berzosertib in combination with cisplatin in patients with advanced solid tumours.
Following screening and baseline evaluations, patients received berzosertib i.v. (90 mg/m^2; days 2 and 9) and cisplatin (40 mg/m^2; day 1), administered in 21-day cycles. Based on safety data from two concurrent studies,[14],[15] a 7- to 14-day lead-in period with single doses of berzosertib (140 mg/m^2) alone was also planned.
For the initial dose escalation, the dose of cisplatin was held constant, while the dose of berzosertib was escalated by a maximum of 50% in each cohort. After the berzosertib dose was escalated, the dose of cisplatin could be increased in order to find the maximum-tolerated dose (MTD) of berzosertib in combination with cisplatin; the MTD was defined as the highest dose of berzosertib tolerated in combination with a cisplatin dose between 60 and 100 mg/m^2, inclusive. […] Patients received berzosertib with cisplatin until progressive disease (PD) or unacceptable toxicity.
Safety evaluations (primary endpoint) included continuous assessment of TEAEs, which were graded using National Cancer Institute Common Terminology Criteria for Adverse Events version 4.0. […] Safety was evaluated throughout treatment and was used to inform dose-escalation decisions. […]

[2] = Plasma and urine pharmacokinetics of berzosertib (LC-MS/MS, non-compartmental analysis); format: in vivo, human; settings: for AUC(0-inf) / clearance / Cmax / half-life / Vd: plasma; for AUC(0-inf): read-out: AUC0–∞, mean (%CV); for clearance: read-out: CL, mean (%CV) (converted); for Cmax: read-out: Cmax, mean (%CV); for Vd: read-out: Vss, mean (%CV)
Protocol: In cycle 1, plasma samples for PK analysis were collected both pre- and post-dose on days 2–5 (pre-dose, 0.5 h before the end of infusion, at the end of infusion, and 0.5, 1, 2, 3, 7, 23, 47, and 71 h after end of infusion) and day 9 (pre-dose). Plasma samples were also collected on day 2 of cycle 2 (pre-dose and 2 h after the end of infusion). Cumulative urine was also collected for PK assessments on days 2 and 3 of cycle 1 (pre-dose to 3, 3–7, 7–11, and 11–23 h). Berzosertib concentrations were quantified using a validated liquid chromatography tandem-mass spectrometry method and plasma PK were characterised by non-compartmental analyses using Phoenix WinNolin 6.4 (Certara USA Inc., Princeton, NJ, USA).
The safety set was defined as all patients who received at least one dose of study drug; patients within the safety set were further classified into those who received at least one dose of the study drug in the lead-in period (lead-in safety set) and those who received at least one dose during the combination period (combination safety set). PK data were collected in the PK analysis set, defined as all enrolled patients who received at least one dose of berzosertib and provided at least one measurable post-dose sample. For efficacy analyses, the full analysis set was used, comprising all enrolled patients who had received a baseline scan, at least one dose of study drug, and had at least one post-baseline disease assessment.
Standard non-compartmental methods were used to determine PK parameters. Continuous variables were summarised using descriptive summary statistics. Categorical variables (e.g. incidence of a TEAE) were summarised using frequency counts and percentages. TEAEs observed were summarised by system organ class and preferred term according to the Medical Dictionary for Regulatory Activities v.18.0 or higher.

[3] = system: ATR; design: method as in PMID 25010037; settings: ATR inhibitor; cited from earlier work
[4] = system: patients with advanced solid tumours; settings: on second infusion of berzosertib; idiosyncratic, no clear relationship to dose; stated as recognised, no reference given; cited from earlier work
[5] = human, intravenous, cycle 1, day 2, berzosertib and cisplatin, berzosertib 90 mg/m^2, n = 2
[6] = human, intravenous, cycle 1, day 2, berzosertib and cisplatin, berzosertib 140 mg/m^2, n = 8
[7] = human, intravenous, cycle 1, day 2, berzosertib and cisplatin, berzosertib 210 mg/m^2, n = 17
[8] = human, iv, 140 mg/m2, lead-in period, berzosertib alone, 140 mg/m^2 i.v., n = 4

## CNCc1ccc(-c2cc(-c3nc(-c4ccc(S(=O)(=O)C(C)C)cc4)cnc3N)on2)cc1 [berzosertib]
[1]; berzosertib 140 mg/m^2 alone, n = 4
  DLTs during the monotherapy lead-in period: no DLTs
[1]; serum chemistry, haematology, urinalysis
  trends in laboratory results, vital signs or ECG parameters attributable to berzosertib: no clinically meaningful trends
[2]; 90–210 mg/m^2, based on mean plasma concentrations and Cmax
  dose proportionality of plasma exposure: approximately dose proportional
[2]; cisplatin given 24 h before berzosertib
  effect of cisplatin on berzosertib pharmacokinetics: no apparent effect; also recorded: does not affect the PK profile
[2]; cumulative urine, days 2 and 3 of cycle 1
  mean percentage of berzosertib excreted in the urine: 6%
[2]; human, intravenous, cumulative urine, days 2 and 3 of cycle 1, read-out: mean renal clearance (converted)
  CL renal: 78.3 mL/min
[2]; [5]
  AUC(0-inf): 2820 ng·h/mL
  clearance: 1020 mL/min
  Cmax: 458 ng/mL
  Vd: 1260 L
[2]; human, intravenous, cycle 1, day 2, berzosertib and cisplatin, berzosertib 90 mg/m^2, n = 2, read-out: T1/2, mean (%CV) (converted)
  half-life: 17 h
[2]; [6]
  AUC(0-inf): 4870 ng·h/mL
  clearance: 912 mL/min
  Cmax: 854 ng/mL
  Vd: 1060 L
[2]; [7]
  AUC(0-inf): 6740 ng·h/mL
  clearance: 1040 mL/min
  Cmax: 1230 ng/mL
  Vd: 1270 L
[2]; [8]
  AUC(0-inf): 5670 ng·h/mL
  clearance: 898 mL/min
  Cmax: 652 ng/mL
[2]; human, intravenous, 140 mg/m^2, berzosertib monotherapy, four patients, read-out: mean terminal elimination half-life (converted)
  half-life: ~17 h
[2]; human, intravenous, 140 mg/m^2, plasma, cycle 1, day 2, berzosertib and cisplatin, berzosertib 140 mg/m^2, n = 8, read-out: T1/2, mean (%CV) (converted)
  half-life: 17.5 h
[2]; human, intravenous, 210 mg/m^2, plasma, cycle 1, day 2, berzosertib and cisplatin, berzosertib 210 mg/m^2, n = 17, read-out: T1/2, mean (%CV) (converted)
  half-life: 17.3 h
[2]; human, iv, 140 mg/m2, plasma, lead-in period, berzosertib alone, 140 mg/m^2 i.v., n = 4, read-out: T1/2, mean (%CV) (converted)
  half-life: 20.3 h
[3]
  IC50: 19 nM
[4]
  patients with acute hypersensitivity: < 5%
